Several values for one entry are separate records, joined by “and”; a condition that tells them apart may be missing. Equal entries are not always repeated. Where two headings read alike, the source gives them in different places.
What was measured:
PI3_Kinase-alpha_h = target: T1, PI3_Kinase-alpha_h (Homo sapiens, UniProt P42336); test: SelectScreen kinase assay; assay type: biochemical; details: KM ATP, read-out: % control
T1 construct: purchased Life Technologies (Invitrogen) SelectScreen, Z'-LYTE / Adapta
Method: (§1) Syk kinase mode of inhibition studies, including parameters described in Fig 1, were conducted on the LC3000 platform by Caliper Life Sciences (Hopkinton, MA) according to standard protocols developed by the supplier. […] Non-kinase enzyme assays and GPCR, ion channel, and transporter binding assays were run by CEREP (France). Non-GLP manual patch clamp hERG assays were run by ChanTest (Cleveland, Ohio). Vivid® Assay kits (Life Technologies) were used to measure the cytochrome P450 inhibition of the compound against CYP3A, CYP2C9, CYP2C19, CYP2D6, and CYP1A2, as described.
(§2) Kinase activity was measured using either the Z’-Lyte® or the Adapta® protocols as part of the SelectScreen™ profiling service offered at Life Technologies (Grand Island, NY). For the single point measurements (Part A), CC-509 was kept constant at 3 µM while ATP concentrations [ATP] used were at the KM for ATP (KM ATP) for that specific enyzme, at 10 or 100 µM ATP (10 ATP or 100 ATP, respectively), as indicated. Values expressed as percent control (% control) relative to DMSO-only wells (uninhibited, 100%).

PI3_Kinase-gamma_h = target: T2, PI3_Kinase-gamma_h (Homo sapiens, UniProt P48736); test: SelectScreen kinase assay; assay type: biochemical; details: KM ATP, read-out: % control
T2 construct: purchased Life Technologies (Invitrogen) SelectScreen, Z'-LYTE / Adapta
Method: as §1, §2

SPHK1_h = target: T3, SPHK1_h (Homo sapiens, UniProt Q9NYA1); test: SelectScreen kinase assay; assay type: biochemical; details: KM ATP, read-out: % control
T3 construct: purchased Life Technologies (Invitrogen) SelectScreen, Z'-LYTE / Adapta
Method: as §1, §2

EphA3_h = target: T4, EphA3_h (Homo sapiens, UniProt P29320); test: SelectScreen kinase assay; assay type: biochemical; details: KM ATP, read-out: % control
T4 construct: purchased Life Technologies (Invitrogen) SelectScreen, Z'-LYTE / Adapta
Method: as §1, §2

PI3_Kinase-delta_h = target: T5, PI3_Kinase-delta_h (Homo sapiens, UniProt O00329); test: SelectScreen kinase assay; assay type: biochemical; details: KM ATP, read-out: % control
T5 construct: purchased Life Technologies (Invitrogen) SelectScreen, Z'-LYTE / Adapta
Method: as §1, §2

SPHK2_h = target: T6, SPHK2_h (Homo sapiens, UniProt Q9NRA0); test: SelectScreen kinase assay; assay type: biochemical; details: 10 µM ATP, read-out: % control
T6 construct: purchased Life Technologies (Invitrogen) SelectScreen, Z'-LYTE / Adapta
T6 sequence (Q9NRA0 whole entry): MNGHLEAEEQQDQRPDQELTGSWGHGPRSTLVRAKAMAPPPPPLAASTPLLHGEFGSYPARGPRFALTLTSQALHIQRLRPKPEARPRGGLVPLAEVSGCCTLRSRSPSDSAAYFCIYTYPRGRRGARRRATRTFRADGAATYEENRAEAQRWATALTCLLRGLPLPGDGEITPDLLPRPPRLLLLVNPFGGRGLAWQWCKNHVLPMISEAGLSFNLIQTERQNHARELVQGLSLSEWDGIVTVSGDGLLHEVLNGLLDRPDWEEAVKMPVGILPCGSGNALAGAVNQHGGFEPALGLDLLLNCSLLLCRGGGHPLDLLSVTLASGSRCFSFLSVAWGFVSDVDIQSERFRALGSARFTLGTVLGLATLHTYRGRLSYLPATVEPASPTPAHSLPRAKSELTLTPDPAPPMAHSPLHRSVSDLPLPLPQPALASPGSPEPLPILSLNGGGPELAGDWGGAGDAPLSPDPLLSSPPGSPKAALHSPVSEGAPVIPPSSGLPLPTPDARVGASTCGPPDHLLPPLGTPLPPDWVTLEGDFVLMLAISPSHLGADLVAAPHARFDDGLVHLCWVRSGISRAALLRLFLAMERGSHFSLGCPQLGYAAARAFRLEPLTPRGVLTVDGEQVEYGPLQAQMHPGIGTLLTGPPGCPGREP
Method: as §1, §2

PIK3C3_h = target: T7, PIK3C3_h (Homo sapiens, UniProt Q8NEB9); test: SelectScreen kinase assay; assay type: biochemical; details: KM ATP, read-out: % control
T7 construct: purchased Life Technologies (Invitrogen) SelectScreen, Z'-LYTE / Adapta
T7 sequence (Q8NEB9 whole entry): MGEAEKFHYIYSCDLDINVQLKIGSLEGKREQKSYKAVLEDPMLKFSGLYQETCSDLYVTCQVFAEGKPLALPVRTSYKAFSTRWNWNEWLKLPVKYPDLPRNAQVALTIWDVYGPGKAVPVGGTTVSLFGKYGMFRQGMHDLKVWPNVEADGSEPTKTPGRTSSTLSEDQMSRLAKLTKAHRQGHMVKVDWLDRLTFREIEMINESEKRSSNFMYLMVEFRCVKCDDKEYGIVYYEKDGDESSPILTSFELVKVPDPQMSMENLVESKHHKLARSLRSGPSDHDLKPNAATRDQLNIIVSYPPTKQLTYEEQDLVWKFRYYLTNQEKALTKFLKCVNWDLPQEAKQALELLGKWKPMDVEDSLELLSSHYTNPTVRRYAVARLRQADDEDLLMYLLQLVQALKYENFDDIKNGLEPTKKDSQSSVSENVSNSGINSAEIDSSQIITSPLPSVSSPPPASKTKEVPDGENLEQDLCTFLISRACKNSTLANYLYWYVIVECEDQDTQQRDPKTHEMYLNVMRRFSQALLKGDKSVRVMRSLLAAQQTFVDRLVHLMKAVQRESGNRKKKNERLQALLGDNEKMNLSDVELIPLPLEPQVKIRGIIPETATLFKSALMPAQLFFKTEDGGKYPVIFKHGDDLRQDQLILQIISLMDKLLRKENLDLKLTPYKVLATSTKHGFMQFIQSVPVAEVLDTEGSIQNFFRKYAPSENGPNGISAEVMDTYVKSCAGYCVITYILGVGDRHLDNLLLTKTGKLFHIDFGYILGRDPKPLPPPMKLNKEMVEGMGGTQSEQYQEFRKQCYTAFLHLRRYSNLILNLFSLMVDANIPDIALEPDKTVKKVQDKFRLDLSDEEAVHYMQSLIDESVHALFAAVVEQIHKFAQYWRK
Method: as §1, §2

PI3K-C2 alpha_h = target: T8, PI3K-C2 alpha_h (Homo sapiens, UniProt O00443); test: SelectScreen kinase assay; assay type: biochemical; details: KM ATP, read-out: % control
T8 construct: purchased Life Technologies (Invitrogen) SelectScreen, Z'-LYTE / Adapta
Method: as §1, §2

PhK-gamma1_h = target: T9, PhK-gamma1_h (Homo sapiens, UniProt Q16816); test: SelectScreen kinase assay; assay type: biochemical; details: KM ATP, read-out: % control
T9 construct: purchased Life Technologies (Invitrogen) SelectScreen, Z'-LYTE / Adapta

PDGFR-alpha_T674I_h = target: T10, PDGFR-alpha_T674I_h (Homo sapiens, UniProt P16234, T674I); test: SelectScreen kinase assay; assay type: biochemical; details: KM ATP, read-out: % control
T10 construct: purchased Life Technologies (Invitrogen) SelectScreen, Z'-LYTE / Adapta
Method: as §1, §2
(§3) Kinase activity was measured using either the Z’-Lyte® or the Adapta® protocols as part of the SelectScreen™ profiling service offered at Life Technologies (Grand Island, NY). […] Values expressed as percent control (% control) relative to DMSO-only wells (uninhibited, 100%).

Tyk2_h = Tyk2_h (Homo sapiens, UniProt P29597); test: SelectScreen kinase assay; assay type: biochemical
Tyk2_h, sequence (P29597 whole entry): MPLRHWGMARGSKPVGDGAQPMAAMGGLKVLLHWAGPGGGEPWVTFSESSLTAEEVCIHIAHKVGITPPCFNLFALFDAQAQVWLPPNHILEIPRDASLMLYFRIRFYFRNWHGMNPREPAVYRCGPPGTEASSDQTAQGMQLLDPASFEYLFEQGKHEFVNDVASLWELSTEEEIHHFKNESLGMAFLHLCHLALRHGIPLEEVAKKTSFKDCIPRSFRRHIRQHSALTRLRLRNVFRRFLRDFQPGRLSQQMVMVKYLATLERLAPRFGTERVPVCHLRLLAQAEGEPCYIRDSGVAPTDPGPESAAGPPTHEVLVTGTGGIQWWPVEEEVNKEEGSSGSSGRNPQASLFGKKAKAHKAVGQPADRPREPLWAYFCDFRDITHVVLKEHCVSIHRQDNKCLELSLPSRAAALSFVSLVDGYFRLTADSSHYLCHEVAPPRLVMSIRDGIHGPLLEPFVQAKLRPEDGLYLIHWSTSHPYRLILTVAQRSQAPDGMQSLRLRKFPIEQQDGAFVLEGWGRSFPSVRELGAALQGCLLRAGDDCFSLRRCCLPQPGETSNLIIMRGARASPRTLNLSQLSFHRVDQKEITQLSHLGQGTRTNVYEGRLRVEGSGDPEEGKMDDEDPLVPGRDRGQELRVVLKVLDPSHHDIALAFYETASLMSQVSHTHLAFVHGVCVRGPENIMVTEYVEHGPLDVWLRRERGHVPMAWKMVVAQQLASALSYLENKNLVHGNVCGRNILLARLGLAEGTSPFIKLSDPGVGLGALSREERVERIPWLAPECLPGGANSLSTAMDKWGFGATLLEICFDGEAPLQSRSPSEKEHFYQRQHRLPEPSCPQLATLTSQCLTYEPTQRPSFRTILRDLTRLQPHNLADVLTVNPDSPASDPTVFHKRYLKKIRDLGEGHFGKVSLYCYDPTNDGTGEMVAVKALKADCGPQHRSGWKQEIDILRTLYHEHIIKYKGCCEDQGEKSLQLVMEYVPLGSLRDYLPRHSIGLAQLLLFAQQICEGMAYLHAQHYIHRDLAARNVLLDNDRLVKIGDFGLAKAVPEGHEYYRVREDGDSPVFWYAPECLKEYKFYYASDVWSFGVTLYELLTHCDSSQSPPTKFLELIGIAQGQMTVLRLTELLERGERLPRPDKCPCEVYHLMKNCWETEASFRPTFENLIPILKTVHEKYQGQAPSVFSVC
Method: as §1, §2, §3

PDK1_h = target: T11, PDK1_h (Homo sapiens, UniProt O15530); test: SelectScreen kinase assay; assay type: biochemical; details: read-out: % control
T11 construct: purchased Life Technologies (Invitrogen) SelectScreen, Z'-LYTE / Adapta
T11 sequence (O15530 whole entry): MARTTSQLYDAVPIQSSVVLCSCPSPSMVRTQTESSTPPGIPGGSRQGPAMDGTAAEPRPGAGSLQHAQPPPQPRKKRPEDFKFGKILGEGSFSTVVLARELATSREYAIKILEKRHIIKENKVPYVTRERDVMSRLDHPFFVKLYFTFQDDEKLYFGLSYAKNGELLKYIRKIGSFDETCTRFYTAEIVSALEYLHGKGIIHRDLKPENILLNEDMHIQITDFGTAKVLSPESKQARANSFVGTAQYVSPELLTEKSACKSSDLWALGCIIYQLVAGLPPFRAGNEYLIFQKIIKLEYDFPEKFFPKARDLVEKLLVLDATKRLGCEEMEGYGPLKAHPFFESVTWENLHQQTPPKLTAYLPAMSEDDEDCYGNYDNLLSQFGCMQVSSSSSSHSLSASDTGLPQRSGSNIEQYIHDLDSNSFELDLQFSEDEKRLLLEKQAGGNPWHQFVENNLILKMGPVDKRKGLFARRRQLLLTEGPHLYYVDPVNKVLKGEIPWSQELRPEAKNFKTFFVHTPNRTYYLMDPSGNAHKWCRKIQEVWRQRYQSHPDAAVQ
Method: as §1, §2, §3

BRK_h = target: T12, BRK_h (Homo sapiens, UniProt Q13882); test: SelectScreen kinase assay; assay type: biochemical; details: KM ATP, read-out: % control
T12 construct: purchased Life Technologies (Invitrogen) SelectScreen, Z'-LYTE / Adapta
T12 sequence (Q13882 whole entry): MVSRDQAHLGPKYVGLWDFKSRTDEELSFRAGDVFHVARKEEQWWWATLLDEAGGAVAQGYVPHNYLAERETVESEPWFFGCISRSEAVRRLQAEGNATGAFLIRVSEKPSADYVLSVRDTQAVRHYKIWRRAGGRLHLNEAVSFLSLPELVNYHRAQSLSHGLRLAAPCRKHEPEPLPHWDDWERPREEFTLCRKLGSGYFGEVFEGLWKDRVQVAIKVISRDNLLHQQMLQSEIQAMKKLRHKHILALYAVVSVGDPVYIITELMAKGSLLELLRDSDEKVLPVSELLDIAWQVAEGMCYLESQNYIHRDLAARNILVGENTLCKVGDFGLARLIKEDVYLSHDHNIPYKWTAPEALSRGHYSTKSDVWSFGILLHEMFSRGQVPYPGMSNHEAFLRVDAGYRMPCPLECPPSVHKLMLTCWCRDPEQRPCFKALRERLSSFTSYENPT
Method: as §1, §2, §3

CaMKI-delta_h = target: T13, CaMKI-delta_h (Homo sapiens, UniProt Q8IU85); test: SelectScreen kinase assay; assay type: biochemical; details: KM ATP, read-out: % control
T13 construct: purchased Life Technologies (Invitrogen) SelectScreen, Z'-LYTE / Adapta
Method: as §1, §2, §3

MARK2_h = target: T14, MARK2_h (Homo sapiens, UniProt Q7KZI7); test: SelectScreen kinase assay; assay type: biochemical; details: KM ATP, read-out: % control
T14 construct: purchased Life Technologies (Invitrogen) SelectScreen, Z'-LYTE / Adapta
Method: as §1, §2, §3

LYN-A_h = LYN-A_h (Homo sapiens, UniProt P07948); test: SelectScreen kinase assay; assay type: biochemical
LYN-A_h, sequence (P07948 whole entry): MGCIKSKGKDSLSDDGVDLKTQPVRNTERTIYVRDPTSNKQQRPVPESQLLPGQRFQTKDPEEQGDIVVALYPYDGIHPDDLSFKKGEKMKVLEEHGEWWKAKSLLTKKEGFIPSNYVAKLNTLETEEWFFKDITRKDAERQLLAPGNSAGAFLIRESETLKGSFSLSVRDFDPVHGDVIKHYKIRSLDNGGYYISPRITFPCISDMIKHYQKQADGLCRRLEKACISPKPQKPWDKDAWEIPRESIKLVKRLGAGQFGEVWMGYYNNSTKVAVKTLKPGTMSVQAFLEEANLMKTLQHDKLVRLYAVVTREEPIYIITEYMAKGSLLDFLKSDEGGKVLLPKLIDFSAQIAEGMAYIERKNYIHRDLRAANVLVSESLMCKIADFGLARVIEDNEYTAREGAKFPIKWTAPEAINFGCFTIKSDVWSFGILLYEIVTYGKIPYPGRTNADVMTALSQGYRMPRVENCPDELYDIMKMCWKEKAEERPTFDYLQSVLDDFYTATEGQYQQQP
Method: as §1, §2, §3

IKK1_h = target: T15, IKK1_h (Homo sapiens, UniProt O15111); test: SelectScreen kinase assay; assay type: biochemical; details: KM ATP, read-out: % control
T15 construct: purchased Life Technologies (Invitrogen) SelectScreen, Z'-LYTE / Adapta
T15 sequence (O15111 whole entry): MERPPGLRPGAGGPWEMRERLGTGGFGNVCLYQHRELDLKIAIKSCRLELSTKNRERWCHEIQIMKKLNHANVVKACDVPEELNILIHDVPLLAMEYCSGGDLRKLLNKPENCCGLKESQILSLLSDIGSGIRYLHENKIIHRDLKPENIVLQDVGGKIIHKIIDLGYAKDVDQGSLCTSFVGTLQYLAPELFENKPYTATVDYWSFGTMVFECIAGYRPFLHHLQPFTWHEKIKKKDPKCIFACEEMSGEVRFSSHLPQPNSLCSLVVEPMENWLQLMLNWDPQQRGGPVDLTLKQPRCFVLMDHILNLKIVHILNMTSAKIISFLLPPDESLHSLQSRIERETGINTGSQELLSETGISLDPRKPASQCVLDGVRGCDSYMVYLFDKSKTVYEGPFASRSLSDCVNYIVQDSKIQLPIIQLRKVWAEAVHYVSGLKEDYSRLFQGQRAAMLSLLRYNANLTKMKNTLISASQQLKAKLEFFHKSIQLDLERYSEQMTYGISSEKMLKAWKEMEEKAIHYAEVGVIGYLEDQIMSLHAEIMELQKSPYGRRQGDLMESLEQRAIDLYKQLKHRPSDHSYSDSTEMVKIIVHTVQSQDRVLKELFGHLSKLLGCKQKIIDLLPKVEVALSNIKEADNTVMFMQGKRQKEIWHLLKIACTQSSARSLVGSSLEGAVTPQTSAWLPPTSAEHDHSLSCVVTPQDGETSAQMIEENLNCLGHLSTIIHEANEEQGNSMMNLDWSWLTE
Method: as §1, §2, §3

CHK1_h = target: T16, CHK1_h (Homo sapiens, UniProt O14757); test: SelectScreen kinase assay; assay type: biochemical; details: KM ATP, read-out: % control
T16 construct: purchased Life Technologies (Invitrogen) SelectScreen, Z'-LYTE / Adapta
Method: as §1, §2, §3

MEK1_h = target: T17, MEK1_h (Homo sapiens, UniProt Q02750); test: SelectScreen kinase assay; assay type: biochemical; details: 100 µM ATP, read-out: % control
T17 construct: purchased Life Technologies (Invitrogen) SelectScreen, Z'-LYTE / Adapta
Method: as §1, §2, §3

Rsk4_h = target: T18, Rsk4_h (Homo sapiens, UniProt Q9UK32); test: SelectScreen kinase assay; assay type: biochemical; details: KM ATP, read-out: % control
T18 construct: purchased Life Technologies (Invitrogen) SelectScreen, Z'-LYTE / Adapta
Method: as §1, §2, §3

EGFR_h = target: T19, EGFR_h (Homo sapiens, UniProt P00533); test: SelectScreen kinase assay; assay type: biochemical; details: KM ATP, read-out: % control
T19 construct: purchased Life Technologies (Invitrogen) SelectScreen, Z'-LYTE / Adapta
Method: as §1, §2, §3

EGFR_L861Q_h = target: T20, EGFR_L861Q_h (Homo sapiens, UniProt P00533, L861Q); test: SelectScreen kinase assay; assay type: biochemical; details: KM ATP, read-out: % control
T20 construct: purchased Life Technologies (Invitrogen) SelectScreen, Z'-LYTE / Adapta
Method: as §1, §2, §3

Aurora-A_h = target: T21, Aurora-A_h (Homo sapiens, UniProt O14965); test: SelectScreen kinase assay; assay type: biochemical; details: KM ATP, read-out: % control
T21 construct: purchased Life Technologies (Invitrogen) SelectScreen, Z'-LYTE / Adapta
Method: as §1, §2, §3

PrKX_h = target: T22, PrKX_h (Homo sapiens, UniProt P51817); test: SelectScreen kinase assay; assay type: biochemical; details: KM ATP, read-out: % control
T22 construct: purchased Life Technologies (Invitrogen) SelectScreen, Z'-LYTE / Adapta
Method: as §1, §2, §3

Syk_h = Syk_h (Homo sapiens, UniProt P43405); test: SelectScreen kinase assay; assay type: biochemical
Method: as §1, §2, §3

CDK7_h = target: T23, CDK7_h (Homo sapiens, UniProt P50613); test: SelectScreen kinase assay; assay type: biochemical; details: KM ATP, read-out: % control
T23 construct: purchased Life Technologies (Invitrogen) SelectScreen, Z'-LYTE / Adapta
Method: as §1, §2, §3

Cyp2C9 = target: T24, Cyp2C9 (Homo sapiens, UniProt P11712); test: Vivid cytochrome P450 inhibition assay; assay type: in vitro ADME; details: data not shown
T24 construct: purchased Life Technologies (Vivid Assay kits)
Method: as §1

Cyp2C19 = target: T25, Cyp2C19 (Homo sapiens, UniProt P33261); test: Vivid cytochrome P450 inhibition assay; assay type: in vitro ADME; details: data not shown
T25 construct: purchased Life Technologies (Vivid Assay kits)
Method: as §1

Cyp1A2 = target: T26, Cyp1A2 (Homo sapiens, UniProt P05177); test: Vivid cytochrome P450 inhibition assay; assay type: in vitro ADME; details: data not shown
T26 construct: purchased Life Technologies (Vivid Assay kits)
Method: as §1

Cyp3A4 = target: T27, Cyp3A4 (Homo sapiens, UniProt P08684); test: Vivid cytochrome P450 inhibition assay; assay type: in vitro ADME; details: data not shown
T27 construct: purchased Life Technologies (Vivid Assay kits)
Method: as §1

Cyp2D6 = target: T28, Cyp2D6 (Homo sapiens, UniProt P10635); test: Vivid cytochrome P450 inhibition assay; assay type: in vitro ADME; details: data not shown
T28 construct: purchased Life Technologies (Vivid Assay kits)
Method: as §1

Rsk1_h = target: T29, Rsk1_h (Homo sapiens, UniProt Q15418); test: SelectScreen kinase assay; assay type: biochemical; details: KM ATP, read-out: % control
T29 construct: purchased Life Technologies (Invitrogen) SelectScreen, Z'-LYTE / Adapta

[1] = 3 µM, KM ATP, read-out: % control
[2] = 10-point dose-response, commercial vendor

## c1cc(CC2CCOCC2)n2nc(Nc3ccc4c(NC5CCOCC5)n[nH]c4c3)nc2c1 [CC-509, [3-(2H-3,4,5,6-tetrahydropyran-4-ylamino)(1H-indazol-6-yl)][5-(2H-3,4,5,6-tetrahydropyran-4-ylmethyl)(2H-1,2,4-triazolo[1,5-a]pyridin-2-yl)]amine]
PI3_Kinase-alpha_h
  remaining activity at 3 µM: 81%
PI3_Kinase-gamma_h
  remaining activity at 3 µM: 61%
SPHK1_h
  remaining activity at 3 µM: 96%
EphA3_h
  remaining activity at 3 µM: 98%
PI3_Kinase-delta_h
  remaining activity at 3 µM: 58%
SPHK2_h
  remaining activity at 3 µM: 105%
PIK3C3_h
  remaining activity at 3 µM: 79%
PI3K-C2 alpha_h
  remaining activity at 3 µM: 95%
PhK-gamma1_h
  remaining activity at 3 µM: 75%
PDGFR-alpha_T674I_h
  remaining activity at 3 µM: 80%
Tyk2_h; [1]
  remaining activity at 3 µM: 3%
Tyk2_h; [2]
  IC50: 110 nM and 112 nM
PDK1_h; 100 µM ATP
  remaining activity at 3 µM: 78%
PDK1_h; KM ATP
  remaining activity at 3 µM: 47%
BRK_h
  remaining activity at 3 µM: 87%
CaMKI-delta_h
  remaining activity at 3 µM: 86%
MARK2_h
  remaining activity at 3 µM: 55%
LYN-A_h; [1]
  remaining activity at 3 µM: 54%
LYN-A_h; [2]
  IC50: 3.58 µM
IKK1_h
  remaining activity at 3 µM: 106%
CHK1_h
  remaining activity at 3 µM: 94%
MEK1_h
  remaining activity at 3 µM: 65%
Rsk4_h
  remaining activity at 3 µM: 32%
EGFR_h
  remaining activity at 3 µM: 97%
EGFR_L861Q_h
  remaining activity at 3 µM: 97%
Aurora-A_h
  remaining activity at 3 µM: 6%
PrKX_h
  remaining activity at 3 µM: 95%
Syk_h; [1]
  remaining activity at 3 µM: -2%
Syk_h; [2]
  IC50: 27.3 nM
CDK7_h
  remaining activity at 3 µM: 94%
Cyp2C9
  inhibition of Cyp450 activity: did not inhibit
Cyp2C19
  inhibition of Cyp450 activity: did not inhibit
Cyp1A2
  inhibition of Cyp450 activity: did not inhibit
Cyp3A4
  inhibition of Cyp450 activity: did not inhibit
Cyp2D6
  inhibition of Cyp450 activity: did not inhibit
Rsk1_h
  remaining activity at 3 µM: 60%

Source: PMC4710522, “A Novel Triazolopyridine-Based Spleen Tyrosine Kinase Inhibitor That Arrests Joint Inflammation” (PLoS ONE, 2016)
